Measured values from PubChem BioAssay (NCI).
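The compound was tested at five concentrations on cells cultured in 96-well plates, with a 48-hour exposure period. GI50: concentration for 50% inhibition of growth. Definition used: TGI = concentration required for complete inhibition of growth.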

Experiments:
Experiment in all cases: NCI anticancer screen, dose series, 48 h
[1] = system: SK-MEL-2 melanoma
[2] = system: SNB-19 CNS
[3] = system: UACC-62 melanoma
[4] = system: HCC-2998 colon
[5] = system: SF-268 CNS
[6] = system: UACC-257 melanoma
[7] = system: NCI-H23 lung
[8] = system: OVCAR-4 ovarian
[9] = system: U251 CNS
[10] = system: NCI-H460 lung
[11] = system: EKVX NSCLC
[12] = system: CCRF-CEM leukemia
[13] = system: TK-10 renal
[14] = system: SW-620 colon
[15] = system: HCT-15 colon
[16] = system: SK-MEL-28 melanoma
[17] = system: HL-60(TB) leukemia
[18] = system: HOP-92 NSCLC
[19] = system: PC-3 prostate
[20] = system: T-47D breast
[21] = system: COLO 205 colon
[22] = system: M14 melanoma
[23] = system: SR leukemia
[24] = system: HOP-62 NSCLC
[25] = system: BT-549 breast
[26] = system: SF-295 CNS
[27] = system: KM12 colon

Compound: COc1ccccc1N1CCN(C2=NN=C(c3cccc(Cl)c3)c3ccccc3C2)CC1
- TGI [1]: > 45400 nM
- GI50 [2]: 420 nM
- TGI [2]: > 100000 nM
- GI50 [3]: 509 nM
- TGI [3]: > 100000 nM
- GI50 [4]: 324 nM
- TGI [4]: 2270 nM
- GI50 [5]: 566 nM
- TGI [5]: > 100000 nM
- GI50 [6]: 2370 nM
- TGI [6]: > 100000 nM
- GI50 [7]: 571 nM
- TGI [7]: > 100000 nM
- GI50 [8]: 1190 nM
- TGI [8]: > 100000 nM
- GI50 [9]: 383 nM
- TGI [9]: > 100000 nM
- GI50 [10]: 351 nM
- TGI [10]: 1940 nM
- GI50 [11]: 556 nM
- TGI [11]: > 100000 nM
- GI50 [12]: 333 nM
- TGI [12]: > 100000 nM
- GI50 [13]: 2320 nM
- TGI [13]: > 43200 nM
- GI50 [14]: 439 nM
- TGI [14]: > 100000 nM
- GI50 [15]: 343 nM
- TGI [15]: > 34200 nM
- GI50 [16]: 2470 nM
- TGI [16]: > 100000 nM
- GI50 [17]: 285 nM
- TGI [17]: 920 nM
- GI50 [18]: 1000 nM
- TGI [18]: > 22200 nM
- GI50 [19]: 443 nM
- TGI [19]: > 33900 nM
- GI50 [20]: 1130 nM
- TGI [20]: > 100000 nM
- GI50 [21]: 337 nM
- TGI [21]: 1650 nM
- GI50 [22]: 316 nM
- GI50 [23]: 260 nM
- TGI [23]: > 100000 nM
- GI50 [24]: 508 nM
- TGI [24]: > 65800 nM
- GI50 [25]: 373 nM
- TGI [25]: > 30500 nM
- GI50 [26]: 334 nM
- TGI [26]: 3440 nM
- GI50 [27]: 380 nM
- TGI [27]: > 100000 nM
